Calls of active or inactive are those of the source. The rule behind the calls is not given here.
Test system: GENE-TOX genotoxicity assays, various organisms and cells
Test: GENE-TOX mutagenicity studies
Conditions: for call: Assay Type: In vivo carcinogenicity studies
[1] = Species/Cell Type: Salmonella typhimurium (one or more of the five standard strains: TA98, TA100, TA1535, TA1537, and TA1538), Assay Type: Histidine reverse gene mutation, Ames assay, Assay Code: SAL+*, Activation: With metabolic activation, Evaluation Type: Evaluation A (Pre-1980)
[2] = Species/Cell Type: Drosophila melanogaster, Assay Type: Sex-linked recessive lethal gene mutation, Assay Code: SRL+, Evaluation Type: Evaluation A (Pre-1980)
[3] = Species/Cell Type: Escherichia coli polA (W3119 vs P3478), Assay Type: Rec-assay, DNA effects (bacterial DNA repair), Assay Code: RE1+, Evaluation Type: Evaluation A (Pre-1980)
[4] = Species/Cell Type: Fischer rat embryo (RLV/1706) cells, Assay Type: Cell transformation, viral enhanced, Assay Code: CTR+, Evaluation Type: Evaluation A (Pre-1980)
[5] = Species/Cell Type: Mouse lymphoma (L5178Y) cells, Assay Type: Forward gene mutation at the thymidine kinase (TK) locus, chromosome aberrations, Assay Code: L51+, Evaluation Type: Evaluation A (Pre-1980)
[6] = Species/Cell Type: Neurospora crassa, Assay Type: Aneuploidy, chromosome aberrations, Assay Code: NEN-, Evaluation Type: Evaluation A (Pre-1980)
[7] = Species/Cell Type: Neurospora crassa, Assay Type: Forward gene mutation, Assay Code: NEF+, Evaluation Type: Evaluation A (Pre-1980)
[8] = Species/Cell Type: Salmonella typhimurium (one or more of the five standard strains: TA98, TA100, TA1535, TA1537, and TA1538), Assay Type: Histidine reverse gene mutation, Ames assay, Assay Code: SALT, Evaluation Type: Evaluation A (Pre-1980)
[9] = Species/Cell Type: Drosophila melanogaster, Assay Type: Sex-linked recessive lethal gene mutation, Assay Code: SRLT, Evaluation Type: Evaluation A (Pre-1980)
[10] = Species/Cell Type: Allium cepa, Assay Type: Chromosome aberrations, Assay Code: ALC+, Evaluation Type: Evaluation A (Pre-1980)
[11] = Species/Cell Type: Nonhuman, Assay Type: Sister-chromatid exchange (SCE) in vitro, Assay Code: SC2+D, Dose Response: With dose response, Evaluation Type: Evaluation B (Post-1980)
[12] = Species/Cell Type: Salmonella typhimurium (one or more of the five standard strains: TA98, TA100, TA1535, TA1537, and TA1538), Assay Type: Histidine reverse gene mutation, Ames assay, Assay Code: SAL+, Evaluation Type: Evaluation A (Pre-1980)
[13] = Species/Cell Type: Nonhuman, Assay Code: CCG+, Evaluation Type: Evaluation A (Pre-1980)
[14] = Species/Cell Type: Rodents, Sex: Male, Assay Type: Dominant lethal test, Assay Code: DLT-, Evaluation Type: Evaluation A (Pre-1980)
[15] = Species/Cell Type: Saccharomyces cerevisiae, Assay Type: Mitotic recombination or gene conversion, Assay Code: YEC+, Evaluation Type: Evaluation A (Pre-1980)
[16] = Species/Cell Type: Saccharomyces cerevisiae, Assay Type: Mitotic recombination or gene conversion, Assay Code: YEH+, Evaluation Type: Evaluation A (Pre-1980)
[17] = Species/Cell Type: Salmonella typhimurium, Assay Type: Forward and reverse gene mutation, host-mediated assay, Assay Code: HMA+, Evaluation Type: Evaluation A (Pre-1980)
[18] = Species/Cell Type: Syrian hamster embryo (SHE) cells, Assay Type: Cell transformation, clonal assay, Assay Code: CTC+, Evaluation Type: Evaluation A (Pre-1980)

C1=CC2c3ccccc3OC2O1 (configuration not stated)
mutagenic call [1]: active; positive

CCN(CC)CCNc1ccc(C)c2sc3ccccc3c(=O)c12
mutagenic call (Species/Cell Type: Drosophila melanogaster, Assay Type: Aneuploidy, whole sex chromosome loss, chromosome aberrations, Assay Code: DAC+M, Evaluation Type: Evaluation A (Pre-1980)): active; positive | mutagenic call [2]: active; positive | mutagenic call [3]: active; positive | mutagenic call [4]: active; positive | mutagenic call [5]: active; positive | mutagenic call [6]: inactive; negative | mutagenic call [7]: active; positive | mutagenic call [1]: active; positive | mutagenic call [8]: no conclusion

Nc1ccc(S(=O)(=O)Nc2nccs2)cc1
mutagenic call (Species/Cell Type: Arabidopsis species, Assay Type: Gene mutation, Assay Code: ARM-, Evaluation Type: Evaluation A (Pre-1980)): inactive; negative

O=c1cc[nH]c(=O)[nH]1
mutagenic call [9]: no conclusion

Cc1ccc([N+](=O)[O-])c(O)c1
mutagenic call [10]: active; positive

Cc1cc2cc3ccccc3cc2c2ccccc12
mutagenic call [11]: active; positive | mutagenic call [1]: active; positive

O=NN1CCCN(N=O)CC1
mutagenic call [1]: active; positive

O=C(NO)c1ccc2ccccc2c1
mutagenic call [11]: active; positive | mutagenic call [12]: active; positive

Nc1ccc2nc3ccccn3c2n1
mutagenic call (Species/Cell Type: Human lymphocytes, Assay Type: Sister-chromatid exchange (SCE) in vitro, Assay Code: SCL+D, Dose Response: With dose response, Evaluation Type: Evaluation B (Post-1980)): active; positive | mutagenic call (Species/Cell Type: Human, Assay Type: Sister-chromatid exchange (SCE) in vitro, Assay Code: SC1+D, Dose Response: With dose response, Evaluation Type: Evaluation B (Post-1980)): active; positive

CCCCN(CCCC(=O)O)N=O
mutagenic call (Species/Cell Type: Salmonella typhimurium (one or more of the five standard strains: TA98, TA100, TA1535, TA1537, and TA1538), Assay Type: Histidine reverse gene mutation, Ames assay, Assay Code: SAL+/-*, Activation: With metabolic activation, Evaluation Type: Evaluation A (Pre-1980)): inactive; positive without activation, negative with activation

O=C(O)O
mutagenic call (Species/Cell Type: Bacillus subtilis (H17 vs M45), Assay Type: Rec-assay, spot test, DNA effects (bacterial DNA repair), Assay Code: REW+, Evaluation Type: Evaluation A (Pre-1980)): active; positive | mutagenic call (Species/Cell Type: Escherichia coli polA (W3119 vs P3478), Assay Type: Rec-assay, DNA effects (bacterial DNA repair), Assay Code: RE1T, Evaluation Type: Evaluation A (Pre-1980)): no conclusion

CC(C)[N+](=O)[O-]
mutagenic call (Species/Cell Type: Mammalian polychromatic erythrocytes, Assay Type: Micronucleus test, chromosome aberrations, Assay Code: MNTT, Evaluation Type: Evaluation A (Pre-1980)): no conclusion | call [13]: active; positive

Cc1ccc2ccc3c4ccccc4cc4ccc1c2c43
mutagenic call [2]: active; positive

C[n+]1ccc(-c2cc[n+](C)cc2)cc1
mutagenic call [10]: active; positive | mutagenic call (Species/Cell Type: Hordeum vulgare (barley), Assay Type: Chromosome aberrations, Assay Code: HOC+, Evaluation Type: Evaluation A (Pre-1980)): active; positive | mutagenic call [11]: active; positive | mutagenic call [14]: inactive; negative | mutagenic call [15]: active; positive | mutagenic call (Species/Cell Type: Vicia faba, Assay Type: Chromosome aberrations, Assay Code: VIC-, Evaluation Type: Evaluation A (Pre-1980)): inactive; negative

OCCI
mutagenic call [3]: active; positive | mutagenic call (Species/Cell Type: Mouse, Sex: Male, Assay Type: Sperm morphology, Assay Code: SPI-, Evaluation Type: Evaluation A (Pre-1980)): inactive; negative | mutagenic call [12]: active; positive

CCN(CC)CCNc1ccc(CO)c2sc3ccccc3c(=O)c12
mutagenic call [2]: active; positive | mutagenic call [9]: no conclusion | mutagenic call (Species/Cell Type: Drosophila melanogaster, Sex: Male, Assay Type: Heritable translocation test, chromosome aberrations, Assay Code: DHT-, Evaluation Type: Evaluation A (Pre-1980)): inactive; negative | mutagenic call [4]: active; positive | mutagenic call (Species/Cell Type: Glycine max (soybean), Assay Type: Gene mutation, Assay Code: GLM-, Evaluation Type: Evaluation A (Pre-1980)): inactive; negative | mutagenic call (Species/Cell Type: Mammalian polychromatic erythrocytes, Assay Type: Micronucleus test, chromosome aberrations, Assay Code: MNT+, Evaluation Type: Evaluation A (Pre-1980)): active; positive | mutagenic call (Species/Cell Type: Mouse (C3H/10T1/2) cells, Assay Type: Cell transformation, Assay Code: CTH+, Evaluation Type: Evaluation A (Pre-1980)): active; positive | mutagenic call (Species/Cell Type: Mouse germ cells, Sex: Male, Assay Type: Unscheduled DNA synthesis (UDS) in vivo, DNA effects, Assay Code: UDT+, Evaluation Type: Evaluation A (Pre-1980)): active; positive | mutagenic call [5]: active; positive | mutagenic call (Species/Cell Type: Mouse, Sex: Female, Assay Type: Spot test, gene mutation, Assay Code: MSTT, Evaluation Type: Evaluation A (Pre-1980)): no conclusion | mutagenic call (Species/Cell Type: Mouse, Sex: Male, Assay Type: Specific locus test, gene mutation, Assay Code: SLT-, Evaluation Type: Evaluation A (Pre-1980)): inactive; negative | mutagenic call (Species/Cell Type: Mouse, Sex: Male, Assay Type: Sperm morphology, Assay Code: SPI+, Evaluation Type: Evaluation A (Pre-1980)): active; positive | mutagenic call [6]: inactive; negative | mutagenic call [7]: active; positive | mutagenic call (Species/Cell Type: Nonhuman bone marrow, Assay Type: Chromosome aberrations, in vivo, Assay Code: CY#T, Evaluation Type: Evaluation A (Pre-1980)): no conclusion | mutagenic call (Species/Cell Type: Nonhuman, Assay Type: Chromosome aberrations in vitro, Assay Code: CY&T, Evaluation Type: Evaluation A (Pre-1980)): no conclusion | call (Species/Cell Type: Nonhuman, Assay Code: CCG-L, Evaluation Type: Evaluation A (Pre-1980)): inactive; negative | mutagenic call (Species/Cell Type: Nonhuman, Assay Type: Sister-chromatid exchange (SCE) in vitro, Assay Code: SC2+D, Dose Response: With dose response, Evaluation Type: Evaluation A (Pre-1980)): active; positive | mutagenic call (Species/Cell Type: Nonhuman, Assay Type: Sister-chromatid exchange (SCE) in vivo, Assay Code: SC3+D, Dose Response: With dose response, Evaluation Type: Evaluation B (Post-1980)): active; positive | mutagenic call (Species/Cell Type: Rodents, Sex: Male, Assay Type: Dominant lethal test, Assay Code: DLT+, Evaluation Type: Evaluation A (Pre-1980)): active; positive | mutagenic call [14]: inactive; negative | mutagenic call [15]: active; positive | mutagenic call [16]: active; positive | mutagenic call (Species/Cell Type: Saccharomyces cerevisiae, Assay Type: Reverse gene mutation, Assay Code: YER+, Evaluation Type: Evaluation A (Pre-1980)): active; positive | mutagenic call [12]: active; positive | mutagenic call (Species/Cell Type: Salmonella typhimurium, Assay Type: Forward and reverse gene mutation, body fluid assay, Assay Code: BFU+, Evaluation Type: Evaluation A (Pre-1980)): active; positive | mutagenic call [17]: active; positive | mutagenic call (Species/Cell Type: Schizosaccharomyces pombe, Assay Type: Forward gene mutation, Assay Code: YEY+, Evaluation Type: Evaluation A (Pre-1980)): active; positive | mutagenic call [18]: active; positive

O=CC1CO1 (configuration not stated)
mutagenic call [3]: active; positive | mutagenic call (Species/Cell Type: Human diploid fibroblasts, Assay Type: Unscheduled DNA synthesis (UDS) in vitro, DNA effects, Assay Code: UDH+, Evaluation Type: Evaluation A (Pre-1980)): active; positive | mutagenic call (Species/Cell Type: Mouse (BALB/c-3T3) cells, Assay Type: Cell transformation, Assay Code: CTB+D, Dose Response: With dose response, Evaluation Type: Evaluation A (Pre-1980)): active; positive | call [13]: active; positive | mutagenic call [16]: active; positive | mutagenic call [12]: active; positive | mutagenic call [17]: active; positive | mutagenic call [18]: active; positive

Cc1ccccc1N=Nc1c(N)ccc2ccccc12
mutagenic call (Species/Cell Type: Bacillus subtilis (H17 vs M45T), Assay Type: Rec-assay, spot test, DNA effects (bacterial DNA repair), Assay Code: REXT, Evaluation Type: Evaluation A (Pre-1980)): no conclusion

Nc1ccc2c(ccc3ccccc32)n1
mutagenic call [1]: active; positive

Nc1nc(-c2csc(N)n2)cs1
mutagenic call [8]: no conclusion

COc1cc2c(c3oc(=O)c4c(c13)[C@@H](O)CC4=O)[C@@H]1C=CO[C@@H]1O2
mutagenic call [1]: active; positive

CN(C)C(=O)Nc1ccc(Oc2ccc(Cl)cc2)cc1
mutagenic call (Species/Cell Type: Saccharomyces cerevisiae, Assay Type: Mitotic recombination or gene conversion, Assay Code: YEC-, Evaluation Type: Evaluation A (Pre-1980)): inactive; negative
